We go through 9 compounds from patent publication US11866439B2, “Ion channel modulators” (Praxis Precision Medicines, Inc., priority 2018, dated 2024).

Holding throughout (type): cell-based
One assay concerns the target T1, hNaV1.1-WT (Homo sapiens, UniProt P35498).
T1 construct: expressed in transfected cells; host or cells: HEK-293
Put plainly: Voltage step activated (peak) sodium current, PatchXpress, hNaV1.1-WT. The conditions noted are these: HEK293, HEK-293, steps to 0 mV from half-inactivation holding potential, read-out: hNav1.1 Peak INa (percent inhibition). The protocol: (§1) Functional characterization of exemplary compounds to modulate INa expressed by various human isoforms and disease-causing mutant voltage-gated sodium channels was accomplished using the PatchXpress high throughput electrophysiology platform (Molecular Devices, Sunnyvale, CA). HEK-293 cells expressing a recombinant, human NaV1.X sodium channel (either hNaV1.6-WT, hNaV1.6-R223G, hNaV1.6-N984K, hNaV1.6-N1768D, hNaV1.1-WT, hNaV1.2-WT, hNaV1.5-WT, hNaV1.7-WT, or hNaV1.8-WT) were grown in DMEM/high-glucose Dulbecco's modified, 10% FBS, 2 mM sodium pyruvate, 10 mM HEPES and 400 μg/mL G418. Cells were grown to 50%-80% confluency prior to harvesting. Trypsinized cells were washed, allowed to recover for 1 hour and then resuspended in extracellular recording solution at a concentration of 1×10^6 cells/ml. The onboard liquid handling facility of the PatchXpress was used for dispensing cells and applying test compounds. INa amplitude and stability were determined by analyzing the peak current amplitude.
(§2) Peak INa was evoked by depolarizing steps to 0 mV for 20 ms from a holding potential which evoked half-inactivation (e.g., −60 mV) at a frequency of 0.1 Hz. The voltage of half-inactivation was determined for each cell using a 5 sec prepulse to membrane potentials between −120 mV and −20 mV followed immediately by a voltage step to a fully activating membrane voltage (e.g., 0 mV). Following steady state block with exemplary compounds (e.g., as described herein), the degree of inhibition was measured using the average of three consecutive voltage steps. Percent steady-state inhibition of INa was calculated as: [(INa_compound)/(INa_control)]*100, where INa_compound and INa_control represent INa recorded in the presence or absence of compound, respectively.
(§3) In this table, “A” indicates inhibition between less than 0% to 50% and “B” indicates inhibition of greater than 50% and N/A indicates the compound was not tested.

Another assay has as its target T2, hNaV1.2-WT (Homo sapiens, UniProt Q99250).
T2 construct: expressed in transfected cells; host or cells: HEK-293
Put plainly: Voltage step activated (peak) sodium current, PatchXpress, hNaV1.2-WT. The conditions noted are these: HEK293, HEK-293, steps to 0 mV from half-inactivation holding potential, read-out: hNav1.2 Peak INa (percent inhibition). The procedure:
as §1, §2, §3

Another assay deals with T3, human NaV1.6 (hNaV1.6) (Homo sapiens, UniProt Q9UQD0).
T3 construct: expressed in transfected cells; host or cells: HEK-293
The assay is described as follows: Late sodium current (INaL) inhibition, PatchXpress electrophysiology, hNaV1.6. Particulars: 1 μM; HEK-293 cells expressing hNaV1.6; late current evoked by 300 nM ATX-II. The procedure:
HEK-293 cells expressing recombinant, human NaV1.6 (hNaV1.6) were grown in DMEM/high-glucose Dulbecco's modified, 10% FBS, 2 mM sodium pyruvate, 10 mM HEPES and 400 μg/mL G418. Cells were grown to 50%-80% confluency prior to harvesting. […] The onboard liquid handling facility of the PatchXpress was used for dispensing cells and applying test compounds. […] INaL was evoked by depolarizing pulses to 0 mV for 200 ms from a non-inactivating holding potential (e.g., −120 mV) at a frequency of 0.1 Hz. INaL amplitude and stability were determined by analyzing the mean current amplitude over the final 20 ms of the test pulse. […] Percent steady-state inhibition of INaL was calculated as: [(INaL_compound)/(INaL_control)]*100, where INaL_compound and INaL_control represent INaL recorded in the presence or absence of compound, respectively.

T2 sequence (Q99250 whole entry): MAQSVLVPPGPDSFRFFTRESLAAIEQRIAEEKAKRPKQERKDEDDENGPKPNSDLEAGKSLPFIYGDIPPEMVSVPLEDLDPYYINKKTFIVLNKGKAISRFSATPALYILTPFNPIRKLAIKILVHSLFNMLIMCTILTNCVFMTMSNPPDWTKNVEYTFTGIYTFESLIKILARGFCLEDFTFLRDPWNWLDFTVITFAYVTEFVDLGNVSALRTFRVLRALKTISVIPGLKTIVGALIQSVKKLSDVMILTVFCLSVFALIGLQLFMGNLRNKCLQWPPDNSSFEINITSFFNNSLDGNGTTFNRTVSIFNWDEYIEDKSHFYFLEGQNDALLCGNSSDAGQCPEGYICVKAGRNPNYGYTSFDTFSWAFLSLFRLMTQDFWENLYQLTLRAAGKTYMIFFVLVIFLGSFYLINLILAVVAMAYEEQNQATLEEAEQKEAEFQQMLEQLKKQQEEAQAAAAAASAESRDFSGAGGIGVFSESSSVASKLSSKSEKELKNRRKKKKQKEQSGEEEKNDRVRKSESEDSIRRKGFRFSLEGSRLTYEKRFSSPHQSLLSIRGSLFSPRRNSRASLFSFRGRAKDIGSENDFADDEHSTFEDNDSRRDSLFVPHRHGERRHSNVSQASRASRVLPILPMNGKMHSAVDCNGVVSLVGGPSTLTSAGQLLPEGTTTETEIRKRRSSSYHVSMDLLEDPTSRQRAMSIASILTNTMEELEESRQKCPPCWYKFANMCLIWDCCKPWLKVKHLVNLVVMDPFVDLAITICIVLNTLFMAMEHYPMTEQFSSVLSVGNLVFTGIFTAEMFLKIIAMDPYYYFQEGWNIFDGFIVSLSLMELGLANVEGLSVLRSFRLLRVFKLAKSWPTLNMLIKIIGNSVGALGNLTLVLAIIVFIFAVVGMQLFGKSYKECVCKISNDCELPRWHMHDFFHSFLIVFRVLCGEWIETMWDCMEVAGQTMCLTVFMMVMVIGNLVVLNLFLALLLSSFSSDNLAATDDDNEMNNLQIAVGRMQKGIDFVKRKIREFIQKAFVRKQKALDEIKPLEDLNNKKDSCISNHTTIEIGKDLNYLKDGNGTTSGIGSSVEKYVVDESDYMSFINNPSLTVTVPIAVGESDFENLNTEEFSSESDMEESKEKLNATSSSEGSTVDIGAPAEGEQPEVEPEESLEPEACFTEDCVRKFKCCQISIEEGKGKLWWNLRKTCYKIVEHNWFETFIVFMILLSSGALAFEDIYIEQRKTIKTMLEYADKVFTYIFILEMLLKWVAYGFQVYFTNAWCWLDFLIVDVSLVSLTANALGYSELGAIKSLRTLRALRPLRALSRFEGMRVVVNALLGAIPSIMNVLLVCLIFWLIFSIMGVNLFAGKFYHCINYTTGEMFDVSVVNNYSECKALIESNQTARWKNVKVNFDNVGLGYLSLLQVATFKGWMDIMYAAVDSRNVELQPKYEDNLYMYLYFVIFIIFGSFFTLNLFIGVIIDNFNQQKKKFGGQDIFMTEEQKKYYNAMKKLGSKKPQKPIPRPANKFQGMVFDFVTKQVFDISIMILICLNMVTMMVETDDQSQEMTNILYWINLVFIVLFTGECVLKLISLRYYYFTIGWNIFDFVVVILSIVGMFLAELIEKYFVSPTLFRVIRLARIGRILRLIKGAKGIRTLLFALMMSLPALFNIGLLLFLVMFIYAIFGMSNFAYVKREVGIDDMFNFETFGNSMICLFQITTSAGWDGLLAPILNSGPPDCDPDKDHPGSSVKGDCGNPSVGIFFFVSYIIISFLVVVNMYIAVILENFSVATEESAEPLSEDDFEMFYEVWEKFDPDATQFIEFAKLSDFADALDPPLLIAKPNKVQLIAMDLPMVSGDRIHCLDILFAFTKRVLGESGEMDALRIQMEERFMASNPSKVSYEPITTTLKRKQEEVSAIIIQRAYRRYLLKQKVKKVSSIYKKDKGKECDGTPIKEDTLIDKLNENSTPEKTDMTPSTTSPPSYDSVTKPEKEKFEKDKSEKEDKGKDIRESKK
T3 sequence (Q9UQD0 whole entry): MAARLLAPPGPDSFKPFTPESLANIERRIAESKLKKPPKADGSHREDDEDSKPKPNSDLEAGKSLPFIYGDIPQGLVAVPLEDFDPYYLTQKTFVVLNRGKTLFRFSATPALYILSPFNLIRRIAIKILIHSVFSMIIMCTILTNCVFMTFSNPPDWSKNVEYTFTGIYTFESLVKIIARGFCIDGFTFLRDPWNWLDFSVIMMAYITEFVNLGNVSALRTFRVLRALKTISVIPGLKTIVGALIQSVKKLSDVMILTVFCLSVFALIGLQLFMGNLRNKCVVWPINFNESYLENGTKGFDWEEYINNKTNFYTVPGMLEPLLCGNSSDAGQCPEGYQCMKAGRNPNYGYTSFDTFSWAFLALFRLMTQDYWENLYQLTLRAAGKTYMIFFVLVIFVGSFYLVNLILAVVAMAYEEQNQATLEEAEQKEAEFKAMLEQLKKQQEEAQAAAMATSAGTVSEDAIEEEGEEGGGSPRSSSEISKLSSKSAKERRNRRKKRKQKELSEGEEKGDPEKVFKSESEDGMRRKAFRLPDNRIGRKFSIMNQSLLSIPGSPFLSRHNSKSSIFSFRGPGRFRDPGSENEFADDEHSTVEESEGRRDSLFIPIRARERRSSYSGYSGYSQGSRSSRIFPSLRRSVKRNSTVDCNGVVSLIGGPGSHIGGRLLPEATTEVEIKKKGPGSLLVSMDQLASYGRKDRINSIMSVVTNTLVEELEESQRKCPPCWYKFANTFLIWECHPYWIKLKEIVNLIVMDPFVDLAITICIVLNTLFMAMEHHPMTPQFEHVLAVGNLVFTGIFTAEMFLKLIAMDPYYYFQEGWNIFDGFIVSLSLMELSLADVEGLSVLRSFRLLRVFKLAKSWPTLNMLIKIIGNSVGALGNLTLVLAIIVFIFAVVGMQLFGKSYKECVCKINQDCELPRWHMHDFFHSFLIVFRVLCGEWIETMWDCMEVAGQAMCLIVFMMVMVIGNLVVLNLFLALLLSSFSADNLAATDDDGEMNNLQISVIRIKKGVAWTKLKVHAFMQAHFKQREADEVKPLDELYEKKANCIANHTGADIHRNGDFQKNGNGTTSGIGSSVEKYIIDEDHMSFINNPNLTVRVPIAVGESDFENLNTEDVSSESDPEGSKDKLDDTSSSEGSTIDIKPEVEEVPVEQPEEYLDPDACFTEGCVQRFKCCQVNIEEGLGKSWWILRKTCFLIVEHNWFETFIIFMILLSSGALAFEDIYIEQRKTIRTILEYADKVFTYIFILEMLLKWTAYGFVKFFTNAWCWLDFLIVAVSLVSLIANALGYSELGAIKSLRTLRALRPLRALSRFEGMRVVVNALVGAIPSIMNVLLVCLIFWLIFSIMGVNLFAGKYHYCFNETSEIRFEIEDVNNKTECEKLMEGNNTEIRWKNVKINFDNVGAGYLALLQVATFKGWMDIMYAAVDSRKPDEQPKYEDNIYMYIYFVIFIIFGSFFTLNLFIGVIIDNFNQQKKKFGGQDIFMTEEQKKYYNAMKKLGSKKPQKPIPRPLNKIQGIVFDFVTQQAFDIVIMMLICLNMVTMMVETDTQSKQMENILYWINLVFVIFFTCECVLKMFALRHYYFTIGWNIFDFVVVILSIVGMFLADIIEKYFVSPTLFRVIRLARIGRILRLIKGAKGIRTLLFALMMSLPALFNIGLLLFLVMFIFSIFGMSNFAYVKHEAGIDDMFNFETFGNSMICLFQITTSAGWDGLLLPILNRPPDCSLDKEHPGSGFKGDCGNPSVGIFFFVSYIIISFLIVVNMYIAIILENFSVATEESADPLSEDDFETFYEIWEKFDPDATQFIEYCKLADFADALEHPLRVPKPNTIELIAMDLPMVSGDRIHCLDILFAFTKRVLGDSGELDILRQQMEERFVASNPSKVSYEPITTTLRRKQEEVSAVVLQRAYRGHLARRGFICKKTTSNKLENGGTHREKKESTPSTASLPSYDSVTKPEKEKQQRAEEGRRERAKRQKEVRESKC

For `COC(F)(F)c1nnc2cnc(-c3cnc(OC4(C(F)(F)F)CCC4)c(F)c3)cn12` [Compound 11, 3-[difluoro(methoxy)methyl]-6-[5-fluoro-6-[1-(trifluoromethyl)cyclobutoxy]-3-pyridyl]-[1,2,4]triazolo[4,3-a]pyrazine], the inhibition (commonly the change of the read-out against control, counted positive when it falls) at 1 µM on hNaV1.1-WT was over 50%.

Turning to `COC(F)(F)c1nnc2cnc(-c3ccc(O[C@H](C)C(F)(F)F)nc3)cn12` [Compound 62, 3-[difluoro(methoxy)methyl]-6-[6-[(1R)-2,2,2-trifluoro-1-methyl-ethoxy]-3-pyridyl]-[1,2,4]triazolo[4,3-a]pyrazine], the inhibition at 1 µM at hNaV1.2-WT and at hNaV1.1-WT was over 50% in each case.

As to `COC(F)(F)c1nnc2cnc(-c3cnc(O[C@@H](C)C(F)(F)F)c(F)c3)cn12` [Compound 6B, 3-[difluoro(methoxy)methyl]-6-[5-fluoro-6-[(1S)-2,2,2-trifluoro-1-methyl-ethoxy]-3-pyridyl]-[1,2,4]triazolo[4,3-a]pyrazine], the inhibition at 1 µM on hNaV1.2-WT and at hNaV1.1-WT was over 50% each time.

For the compound `COC(F)(F)c1nnc2cnc(-c3ccc(O[C@@H](C)C(F)(F)F)nc3)cn12` [Compound 59, 3-[difluoro(methoxy)methyl]-6-[6-[(1S)-2,2,2-trifluoro-1-methyl-ethoxy]-3-pyridyl]-[1,2,4]triazolo[4,3-a]pyrazine], the inhibition at 1 µM at hNaV1.2-WT and on hNaV1.1-WT was over 50% in each case.

In the case of `COC(F)(F)c1nnc2cnc(-c3ccc(OC4(C(F)(F)F)CCC4)nc3)cn12` [Compound 57], the “NaV 1.6 Assay Data (percent inhibition of INaL at hNaV1.6)” value at human NaV1.6 (hNaV1.6) was “C (“C” indicates inhibition of greater than 70%)”.

As to `COC(F)(F)c1nnc2cnc(-c3cnc(OCC(F)(F)F)c(F)c3)cn12` [Compound 53, 3-[difluoro(methoxy)methyl]-6-[5-fluoro-6-(2,2,2-trifluoroethoxy)-3-pyridyl]-[1,2,4]triazolo[4,3-a]pyrazine], the figures for the inhibition at 1 µM at hNaV1.2-WT and at hNaV1.1-WT were under 50% and over 50%, respectively.

As to `CCOC(F)(F)c1nnc2cnc(-c3cnc(OCC(F)(F)F)c(F)c3)cn12` [Compound 10], the results for the inhibition at 1 µM on hNaV1.2-WT and on hNaV1.1-WT were under 50% and over 50%, respectively.

As to `CCOC(F)(F)c1nnc2ccc(-c3cnc(OCC(F)(F)F)c(F)c3)cn12` [Compound 3, 3-[ethoxy(difluoro)methyl]-6-[5-fluoro-6-(2,2,2-trifluoroethoxy)-3-pyridyl]-[1,2,4]triazolo[4,3-a]pyridine], the inhibition at 1 µM on hNaV1.1-WT is over 50%.

In the case of `COC(F)(F)c1nnc2cnc(-c3ccc(OC(C)(C)C(F)(F)F)nc3)cn12` [Compound 56, 3-[difluoro(methoxy)methyl]-6-[6-(2,2,2-trifluoro-1,1-dimethyl-ethoxy)-3-pyridyl]-[1,2,4]triazolo[4,3-a]pyrazine], the inhibition at 1 µM at hNaV1.2-WT and at hNaV1.1-WT was over 50% each time.
